Experimental data taken from US8415128B2, “Mitigation of photodamage in analytical reactions” (Pacific Biosciences of California, Inc., priority 2005, dated 2013).

Columns and labels:
Type in all cases: biochemical
DNA polymerase enzymes = assay: Chromatide incorporation activity after photodamage step on planar glass substrates; details: relative to a non-illuminated control region; Laser Power 2.5 μW/μm^2; baseline 10 mM MEA-Ac, 0.1×GO-Cat, 25 mM Tris-Ascorbate; Trolox at 1 mM, PPD at 100 mM
Method: In the experiment, DNA polymerase enzymes were immobilized on planar glass substrates (fused silica microscope slides) and subjected to reaction conditions under which DNA synthesis was taking place. Each reaction mixture also included a baseline level of photodamage mitigating agents (10 mM MEA-Ac, 0.1×GO-Cat, 25 mM Tris-Ascorbate). The reactions were carried out under laser illumination of varying power.
Following the photodamage step, all the solution was washed from the chip and replaced with ordinary buffers and dNTPs. In addition, a base labeled fluorescent nucleotide (chromatide) was added to provide a fluorescent signal of incorporation activity following the photodamage step, above. […] The activity of the enzyme was measured based upon the relative fluorescence of the DNA on the slide.
Table 1, below provides the percent chromatide relative to a non-illuminated control region, for each different additive at the listed laser power.

[1] = tested on: modified φ29 DNA polymerase; assay: Bulk DNA synthesis under laser illumination, agarose gel image scanning; details: dye labeled tetraphosphates (reaction condition 3); 5 minute illumination; 5 mM DTT or 100 mM MEA
Method: In a first assay, synthesis reaction mixtures contained a modified φ29 DNA polymerase, 300 nM DNA template, three native nucleoside triphosphates (at 10 μM each) and a fluorescent dye labeled nucleoside polyphosphate (at 10 μM) in synthesis buffer (50 mM Tris-HCl, pH 7.5, 75 mM KCL, 20 mM (NH4)2SO4, 10 mM BME, 0.7 mM MnCl2). Each of the reactions were carried out at room temperature (22° C.) for the desired illumination period, ranging from 1 minute to one hour.
The experiment included two sets each of three different reaction mixtures: (1) a synthesis reaction using only native, e.g., unlabeled nucleoside triphosphates; (2) a synthesis reaction including two native nucleoside triphosphates, an Alexa 488 labeled dCTP analog, and an Alexa 568 labeled dTTP; and (3) a synthesis reaction including two native nucleoside triphosphates, an Alexa 488 labeled dC4P analog (tetraphosphate), and an Alexa 568 labeled dT4P. Each different synthesis reaction conditions included either no illumination or laser illumination during synthesis for five minutes with wavelengths of 488, 568 and 647 nm, followed by 60 minutes of nonilluminated synthesis. […]
The gel was subjected to image scanning (Molecular Dynamics Typhoon 9400, with Typhoon scanner Control Version 2; gel image quantified with Molecular Dynamiics ImageQuant ver. 5.2). […]

[2] = tested on: DNA polymerase immobilized within zero mode waveguides; assay: DNA synthesis in zero mode waveguide arrays with and without laser illumination; details: 160 mM DTT, without MEA; ZMW arrays
Method: A similar set of experiments to those described above were performed using DNA polymerase immobilized within zero mode waveguides in an array of waveguides. As above, the first experiment was designed to identify whether laser illumination caused damage to immobilized polymerase enzymes on nanostructured surfaces. The surfaces included ZMW arrays in which the polymerase enzyme was adsorbed to the surface. […] The illumination profile is shown in the first panel (far left), while the image of the stained DNA product in the illuminated synthesis is shown in the adjacent panel (middle left). […] The middle right and far right panels show non-illuminated waveguide arrays, and indicate substantially more DNA is present than in the illuminated sample, again showing photo-induced damage to the polymerase activity in the waveguide arrays. FIG. 4B illustrates a first set of waveguide arrays in which similar synthesis reactions were carried out in the presence of no additional mitigation agents (e.g., only 10 mM βME), or in the presence of 5 mM DTT and 100 mM MEA.

Row | SMILES | % Chromatide activity (DNA polymerase enzymes) [%] | ratio of product when exposed to laser illumination to that in the absence of such illumination [1] | amount of damaged polymerase activity [2]
1 | Nc1ccc(N)cc1 [PPD, p-phenylenediamene] | 58 | – | –
2 | O[C@H](CS)[C@H](O)CS (racemic) [DTT, dithiothreitol] | – | 0.59 | improvements
3 | Cc1cc(C(C)(C)C)c(O)c(C(C)(C)C)c1 [BHT, butylated hydroxytoluene] | 22 | – | –
4 | NCCS [MEA, mercaptoethylamine] | – | 1.04 | –
5 | Cc1c(C)c2c(c(C)c1O)CCC(C)(C(=O)O)O2 (stereo not shown) [Trolox] | 41 | – | –
6 | C1CN2CCN1CC2 [DABCO, diazobicyclooctane] | 20 | – | –
